These results are taken from patent US9492494B2, “Oral composition” (Kyowa Hakko Bio Co., Ltd., priority 2007, dated 2016).

The test system of the experiment is soluble collagen and insoluble collagen of abdominal skin. Kind of experiment: Oral administration test in rats: L-hydroxyproline in soluble and insoluble collagen of abdominal skin (Experimental Example 2). In kind it is in vivo, F344/DuCrlCrlj rats. To be noted: oral 10 mL/kg once a day for 12 days, abdominal skin on 13th day, soluble plus insoluble collagen, mean±standard deviation, 4 rats per group.

Protocol: To the rats of the administration groups 7-11 were each administered with compositions 7-11 obtained by dissolving collagen peptide and L-hydroxyproline in purified water to the contents shown in Table 3 at 10 mL/kg. The rats of the control administration group 12 were administered with purified water at 10 mL/kg.
On the 13th day from the start of the administration test, the abdomen was shaved under anesthesia by intraperitoneal administration of pentobarbital, and the abdominal skin was collected. […] The values are shown by mean±standard deviation.

Take `O=C(O)[C@@H]1C[C@@H](O)CN1` [composition 11, trans-4-hydroxy-L-proline]: the “L-hydroxyproline amount/wet weight of skin” value was 10.66 ± 1.69 mg/g.
